The nature of experiment [1]: Cytotoxicity against human KATO III cells at 10 uM after 72 hrs by MTT assay. The class given is functional, KATO III cell. (In general: Formazan colour is commonly taken as a measure of viable cells.)
The subject of another experiment is SW-620. The experiment in a line: Cytotoxicity against human SW620 cells at 10 uM after 72 hrs by MTT assay. The class given is functional.
Experiment [2] is described as follows: Cytotoxicity against human CaSki cells after 72 hrs by MTT assay. To be noted: Ca-Ski. Format: functional, cell-based.
Experiment [3] is described as follows: Cytotoxicity against human ChaGo cells at 10 uM after 72 hrs by MTT assay. Format: functional.
Experiment [4] has as its system HepG2. Description: Cytotoxicity against human HepG2 cells at 10 uM after 72 hrs by MTT assay. The class given is functional.
A short description of experiment [5]: Cytotoxicity against human CaSki cells at 10 uM after 72 hrs by MTT assay. The class given is functional, Ca-Ski.
A short description of experiment [6]: Cell cycle arrest in human CaSki cells assessed as accumulation at G1 phase at 1.5 uM after 24 hrs by propidium iodide staining-based FACS analysis (reference value: 61.3%). The class given is functional. To be noted: Ca-Ski.
Experiment [7] concerns Ca-Ski. Description: Induction of apoptosis in human CaSki cells carrying HPV assessed as reduction of E6 mRNA expression at 0.3 uM after 24 hrs by RT-PCR analysis. The class given is functional, cell-based.
The nature of experiment [8]: Cell cycle arrest in human CaSki cells assessed as accumulation at S phase at 3 uM after 24 hrs by propidium iodide staining-based FACS analysis (reference value: 14.1%). Format: functional. To be noted: Ca-Ski.
Experiment [9] in a line: Cell cycle arrest in human CaSki cells assessed as accumulation at G0 phase at 1.5 uM after 24 hrs by propidium iodide staining-based FACS analysis (reference value: 1.5%). Format: functional. The note with it: Ca-Ski. Background: Flow cytometry measures light scatter and fluorescence of single cells or particles in a stream.
The test system of experiment [10] is Ca-Ski. The experiment in a line: Inhibition of colony formation in human CaSki cells at 5 uM after 24 hrs by crystal violet staining-based fluorescence microscopy. The class given is functional, cell-based.
A short description of experiment [11]: Cell cycle arrest in human CaSki cells assessed as accumulation at G1 phase at 3 uM after 24 hrs by propidium iodide staining-based FACS analysis (reference value: 61.3%). Format: functional. To be noted: Ca-Ski.
Experiment [12] in a line: Cell cycle arrest in human CaSki cells assessed as accumulation at G1 phase at 0.3 uM after 24 hrs by propidium iodide staining-based FACS analysis (reference value: 61.3%). The class given is functional. To be noted: Ca-Ski.
Experiment [13] in a line: Cytotoxicity against human ChaGo cells after 72 hrs by MTT assay. The class given is functional, cell-based.
Experiment [14] is described as follows: Cell cycle arrest in human CaSki cells assessed as accumulation at G2/M phase at 3 uM after 24 hrs by propidium iodide staining-based FACS analysis (reference value: 18.0%). To be noted: Ca-Ski. The class given is functional.
The nature of experiment [15]: Cytotoxicity against human KATO III cells after 72 hrs by MTT assay. Format: functional, cell-based, KATO III cell.
Experiment [16] has as its system Ca-Ski. The experiment in a line: Induction of apoptosis in human CaSki cells carrying HPV assessed as inhibition of Bcl-2 protein expression at 0.3 uM after 24 hrs by Western blotting analysis. Format: functional, cell-based.
A short description of experiment [17]: Cytotoxicity against human WI38 cells after 72 hrs by MTT assay. The class given is cell-based. The note with it: WI-38, 72 h.
Experiment [18] relates to Ca-Ski. The experiment in a line: Induction of apoptosis in human CaSki cells carrying HPV assessed as increase in procaspase-3 protein expression after 24 hrs by Western blotting analysis. The class given is functional, cell-based.
The test system of experiment [19] is Ca-Ski. Description: Cytotoxicity against human CaSki cells at 10 uM in presence of glutathione relative to control. The class given is functional, cell-based.
The nature of experiment [20]: Cell cycle arrest in human CaSki cells assessed as accumulation at G0 phase at 0.3 uM after 24 hrs by propidium iodide staining-based FACS analysis (reference value: 1.5%). The class given is functional. To be noted: Ca-Ski.
The nature of experiment [21]: Cell cycle arrest in human CaSki cells assessed as accumulation at G2/M phase at 1.5 uM after 24 hrs by propidium iodide staining-based FACS analysis (reference value: 18.0%). The note with it: Ca-Ski. Format: functional.
A short description of experiment [22]: Cell cycle arrest in human CaSki cells assessed as accumulation at G2/M phase at 0.3 uM after 24 hrs by propidium iodide staining-based FACS analysis (reference value: 18.0%). The class given is functional. To be noted: Ca-Ski.
A short description of experiment [23]: Cell cycle arrest in human CaSki cells assessed as accumulation at S phase at 0.3 uM after 24 hrs by propidium iodide staining-based FACS analysis (reference value: 14.1%). The class given is functional. To be noted: Ca-Ski.
Experiment [24] has as its system Ca-Ski. Description: Induction of apoptosis in human CaSki cells carrying HPV assessed as increase in p53 protein expression after 24 hrs by Western blotting analysis. Format: functional, cell-based. In general terms: Immunoblotting shows a protein as a band on a membrane.
Experiment [25] in a line: Cell cycle arrest in human CaSki cells assessed as accumulation at G2/M phase after 24 hrs by propidium iodide staining-based FACS analysis. Format: functional. The note with it: Ca-Ski.
Experiment [26] concerns HepG2. Description: Cytotoxicity against human HepG2 cells after 72 hrs by MTT assay. Format: functional, cell-based. To be noted: HepG2, 72 h.
The test system of experiment [27] is Ca-Ski. The experiment in a line: Induction of apoptosis in human CaSki cells by DAPI staining-based fluorescence microscopy. The class given is functional, cell-based.
The subject of experiment [28] is Ca-Ski. The experiment in a line: Induction of apoptosis in human CaSki cells carrying HPV assessed as downregulation of Akt phosphorylation after 24 hrs by Western blotting analysis. Format: functional, cell-based.
Experiment [29] in a line: Cell cycle arrest in human CaSki cells assessed as accumulation at S phase at 1.5 uM after 24 hrs by propidium iodide staining-based FACS analysis (reference value: 14.1%). Format: functional. The note with it: Ca-Ski.
The nature of experiment [30]: Cell cycle arrest in human CaSki cells assessed as accumulation at G0 phase at 3 uM after 24 hrs by propidium iodide staining-based FACS analysis (reference value: 1.5%). The class given is functional. To be noted: Ca-Ski.

Activity calls are given as the source filed them. No cut-off for these calls is given here.

The values that follow come from ChEMBL document CHEMBL3352163, “Anthracene-9, 10-dione derivatives induced apoptosis in human cervical cancer cell line (CaSki) by interfering with HPV E6 expression” (Eur J Med Chem, 2014).

One may read the IC50 as the point on the concentration scale where inhibition reaches its midpoint. The low end stands for inhibition by little substance, the high end for a need for much substance.

Turning to `O=C1c2ccccc2C(=O)c2c(O)ccc(O)c21` [QUINIZARIN], the Activity stood at 38.4% in experiment [1]; 21.1% with SW-620; 12.3% in [3]; 5.6% in the experiment with HepG2 [4]; 48.6% in [5]. In experiment [2], the IC50 is more than 10 µM.
Regarding `Cc1ccc(S(=O)(=O)Oc2ccc(N3CCOCC3)c3c2C(=O)c2ccccc2C3=O)cc1`, the Activity was determined as 35.3% in experiment [1]; 22.3% in the experiment on SW-620; 11.3% in experiment [3]; 6.1% in the experiment with HepG2 [4]; 43.8% in experiment [5].
`CCN(CC)c1ccc(OS(=O)(=O)c2ccc(C)cc2)c2c1C(=O)c1ccccc1C2=O`: the Activity is on record as 39.9% in experiment [1]; 32.6% in the experiment on SW-620; 43.9% in experiment [3]; 35.6% in the experiment with HepG2 [4]; 50% in experiment [5]. The compound further came in with an IC50 in experiment [2] of 0.3 µM.
Regarding `Cc1ccc(S(=O)(=O)Oc2ccc(NCc3ccccc3)c3c2C(=O)c2ccccc2C3=O)cc1`, the Activity in experiment [6] is 31.7%; in experiment [8], 14.2%; in experiment [9], 11%; in experiment [1] it was 41.5%; in [11] it was 12.4%; in experiment [12], 62%. Moreover, the Activity in the experiment on SW-620 worked out at 49.1%; in experiment [14], 46.2%; in experiment [20] it was 1.9%; in experiment [21] it was 33.8%; in experiment [22] it was 19.5%; in experiment [3], 39.8%. Besides, the Activity was 12.6% in [23]; 40.5% with HepG2 [4]; “Dose-dependent effect” in experiment [25]; “Dose-dependent effect” in the experiment with Ca-Ski [27]; “Dose-dependent effect” in the experiment on Ca-Ski [28]; 13.7% in experiment [29]. Further, the Activity was 84.5% in experiment [5] and 10.9% in experiment [30]. In addition, the outcome in the experiment on Ca-Ski [7], in the experiment with Ca-Ski [18], in the experiment on Ca-Ski [19] and with Ca-Ski [24] was Active. Moreover, the inhibition result in the experiment on Ca-Ski [10] and with Ca-Ski [16] was “Active” in each case. For the same compound, the IC50 was more than 5.7 µM in [13], more than 5.7 µM in experiment [15], more than 10 µM in [17] and more than 5.7 µM in the experiment with HepG2 [26].
Consider `Cc1ccc(S(=O)(=O)Oc2ccc(NCCc3ccccc3)c3c2C(=O)c2ccccc2C3=O)cc1`, for which the Activity in experiment [1] turned out to be 42.5%; in the experiment on SW-620, 49.5%; in experiment [3], 13.3%; with HepG2 [4] it was 8.3%; in experiment [5], 27.4%.
For the compound `Cc1ccc(S(=O)(=O)Oc2ccc(NCCN3CCOCC3)c3c2C(=O)c2ccccc2C3=O)cc1`, the Activity in experiment [1] came out at 29.3%; in the experiment with SW-620, 19.4%; in experiment [3], 4.9%; in the experiment with HepG2 [4], 11.1%; in experiment [5] it was 42.8%.
For `Cc1ccc(S(=O)(=O)Oc2ccc(OS(=O)(=O)c3ccc(C)cc3)c3c2C(=O)c2ccccc2C3=O)cc1`, the Activity amounted to 31.1% in [1]; 22.2% with SW-620; 5.8% in experiment [3]; 11.9% in the experiment with HepG2 [4]; 36.4% in [5].
